Assay results from article PMC4445002, “Efficient inhibition of tumor angiogenesis and growth by a synthetic peptide blocking S100A4-methionine aminopeptidase 2 interaction” (Molecular Therapy. Methods & Clinical Development, 2015).

Key:
PC-3M-Luc tumors = test: Tumor angiogenesis (microvessel density, CD31 staining) in PC-3M-Luc xenografts; assay type: in vivo, human tumor in athymic nude mice; settings: single intratumoral injection of 100 μg peptide in atelocollagen, tumors dissected three days after
Method: Figure 5 Inhibition of tumor angiogenesis and tumor growth of human prostate cancer cells by the NBD peptide. The peptide/atelocollagen was injected into the subcutaneous tumors on day 3 after inoculation of PC-3M-Luc cells. Atelocollagen alone was injected as controls. (a) Microvessel density. Anti-CD31-antibody staining was used to detect angiogenesis. Arrows show microvessels. The images were digitally processed for assessment of angiogenesis. (b) Inhibition of tumor growth by peptide delivery in vivo. Representative bioluminescent images of nude are shown. L, tumors treated with the CBD peptide; R, tumors treated with the NBD peptide. (c) The photon count of the bioluminescence is shown. Data represent the mean ± SD. The total number of animals is 7 in two independent experiments.
The peptide/atelocollagen complex was prepared by mixing equal volumes of atelocollagen (0.1% in PBS at pH 7.4) and peptide solution (1 mg/ml) with rotation for 30 minutes at 4 °C. The final concentration of atelocollagen was 0.5%. […] Tumor growth was assessed through peptide/atelocollagen complex administration to mice 3 days after the subcutaneous inoculation of PC-3M-Luc cells. Mice were monitored by bioluminescent imaging 14 days after the injection of the peptide/atelocollagen complex. […]

NMIIA in MSS31 cells = test: NMIIA filament assembly and S100A4-NMIIA colocalization by immunofluorescence; assay type: cell-based, mouse; settings: atelocollagen complex, 5 μg/well, 18 hours
Method: Figure 6 Stimulation of NMIIA phosphorylation and filament assembly by the NBD peptide. MSS31 cells incubated with atelocollagen alone or the peptide/atelocollagen complexes were subjected to western blot analysis and immunofluorescent staining. (a) Western blot analysis of NMIIA phosphorylation. Total cellular proteins were subjected to immunoblot analysis. The band intensity of p-NMIIA relative to that of total NMIIA was measured using ImageJ software and normalized to control cells. (b) NMIIA assembly. MSS31 cells were simultaneously incubated with rabbit polyclonal anti-S100A4 antibody and mouse monoclonal anti-NMIIA antibody followed by Alexa Fluor 488-conjugated goat antirabbit IgG and Alexa Fluor 594-conjugated goat antimouse IgG. Nuclei were stained with DAPI. Scale bars: 50 μm. (c) Blockade of S100A4-NMIIA interaction by the NBD peptide. MSS31 cells were immunostained as in a. White arrows and yellow arrows indicate colocalized areas and independently localized areas of S100A4 and NMIIA, respectively. Bars: 20 μm. TEXT PRINTED IN THE PICTURE: (a) NBD: p-NMIIA/total NMIIA: 1.78 | (a) CBD: p-NMIIA/total NMIIA: 0.66
MSS31 cells cultured in six-well plates were incubated with 5 μg/well of the NBD or the CBD peptide/atelocollagen complex or atelocollagen alone for 18 hours in Culture Slides (4 wells, BD Falcon) and were washed three times with DPBS and fixed for 10 minutes at 4 °C with 4% formaldehyde in DPBS. After permeabilizing with 0.5% Triton X-100 in DPBS for 4 minutes, the cells were treated with 3% bovine serum albumin in DPBS containing 0.1% glycine for 1 hour to block nonspecific binding sites. After washing with DPBS, the cells were incubated for 1 hour with primary antibodies, rinsed, and then stained with secondary antibodies. The primary antibodies used were polyclonal anti-S100A4, monoclonal anti-NMIIA antibody, monoclonal antivinculin antibody and polyclonal anti-integrin β1 antibody. The secondary antibody was Alexa Fluor 488-conjugated goat antirabbit IgG (Invitrogen) or Alexa Fluor 594-conjugated goat antimouse IgG (Invitrogen). […]

[1] = tested on: FAK (Tyr397) in MSS31 cells; test: FAK Tyr397 phosphorylation by western blot; assay type: cell-based, mouse; settings: vs control and CBD peptide-treated cells; 5 μg/well, 18 hours
Method: (§1) Figure 7 Stimulation of the formation of focal contacts by the NBD peptide. MSS31 cells incubated with atelocollagen alone or the peptide/atelocollagen complexes were subjected to immunofluorescent staining and western blot analysis. (a) Formation of focal adhesions. The cells were immunostained with antivinculin or anti-integrin β1 antibody followed by Alexa Fluor 488-conjugated secondary antibody. F-actin was visualized with Atto 647N-Phalloidin. Nuclei were stained with DAPI. Scale bars: 50 μm. (b) Western blot analysis of focal adhesion proteins. Total cellular proteins were subjected to immunoblot analysis. (c) Relative expression level of vinculin (VCN), integrin β1 (ITGβ1) and p-FAK. The band intensity of VCN and ITGβ1 and p-FAK relative to that of β-actin and total FAK, respectively, was measured using ImageJ software and normalized to control cells.
(§2) MSS31 cells cultured in six-well plates were incubated with 5 μg/well of the NBD or the CBD peptide/atelocollagen complex or atelocollagen alone for 18 hours and were lysed in M-PER Mammarian Protein Extraction Reagent (Thermo Fisher Scientific, Waltham, MA) containing complete, EDTA-free, EASYpack (Roche Applied Science, Penzberg, Upper Bavaria, Germany) and Halt Phosphatase Inhibitor Cocktail (Thermo Fisher Scientific). The lysates was used for immunoblot analysis. […]

[2] = tested on: vinculin, integrin β1 and FAK in MSS31 cells; test: Expression of vinculin, integrin β1 and FAK by western blot; assay type: cell-based, mouse; settings: total cell lysates, vs control cells; 5 μg/well, 18 hours
Method: as §1, §2

With “NBD: N-terminal 39 amino acid sequence of SBD, from Arg170 to Ileu208; corresponding to MetAP2 (170–208) (REAAEAHRQVRKYVMSWIKPGMTMIEICEKLEDCSRKLI)” the tumor angiogenesis (PC-3M-Luc tumors) was “severely impaired”, the NMIIA filament assembly (NMIIA in MSS31 cells) was “stimulated filament assembly in MSS31 cells” and the “colocalization of S100A4 and NMIIA” value (NMIIA in MSS31 cells) was “the majority of S100A4 was not colocalized with NMIIA filaments”. The “distribution of NMIIA filaments” value (NMIIA in MSS31 cells) was “evenly distributed throughout the cells and showed no polarization”, the “phosphorylation of Tyr397 of FAK” value [1] was “no significant increase in the phosphorylation of Tyr397 of FAK” and the “expression of vinculin, integrin β1 and FAK” value [2] was “no significant difference in the expressions of vinculin, integrin β1 and FAK”.
